Assay results as given in PubChem BioAssay (NCI).
Values joined by “and” are separate entries in the source; they are usually repeats but may differ in a detail not shown here. Equal values may be shown once.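 Test compounds were applied to cells in 96-well plates for 48 hours at 5 doses. GI50 marks 50% less growth. TGI marks complete inhibition of growth.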

Columns and labels:
Assay in all cases: NCI-60 cell line screen, 48 h
[1] = tested on: SF-539 CNS
[2] = tested on: NCI-H522 lung
[3] = tested on: CCRF-CEM leukemia
[4] = tested on: OVCAR-5 ovarian
[5] = tested on: ACHN renal
[6] = tested on: OVCAR-3 ovarian
[7] = tested on: HOP-62 NSCLC
[8] = tested on: RXF 393 renal
[9] = tested on: MOLT-4 leukemia
[10] = tested on: SK-MEL-2 melanoma

| SMILES | GI50 [1] | TGI [1] | GI50 [2] | TGI [2] | GI50 [3] | TGI [3] | GI50 [4] | TGI [4] | GI50 [5] | TGI [5] | GI50 [6] | TGI [6] | GI50 [7] | TGI [7] | GI50 [8] | TGI [8] | GI50 [9] | TGI [9] | GI50 [10] | TGI [10] |
| --- | --- | --- | --- | --- | --- | --- | --- | --- | --- | --- | --- | --- | --- | --- | --- | --- | --- | --- | --- | --- |
| C[C@]12CCc3sc(Nc4ccc(OC(F)(F)F)cc4)nc3C1=CC[C@@H]1[C@@H]2CC[C@]2(C)C(=O)CC[C@@H]12 | 1.05 µM | 2.72 µM | 2.14 µM | 4.56 µM | 1.42 µM | > 100 µM | 9.06 µM | 40.3 µM | 3.27 µM | 10.8 µM | 1.94 µM | 4.14 µM | 1.92 µM | 4.19 µM | 0.5 µM | 2.21 µM | 1530 nM | 11.9 µM | 3 µM | 11.6 µM |
| CCOc1cccc(/C=N/NC(=O)c2cccc(Nc3ccnc(C(F)(F)F)c3)c2)c1O | 1.32 µM | 10.6 µM | 4.54 µM | 32.5 µM | 0.18 µM | > 100 µM | 2.33 µM | 60.7 µM | 0.699 µM | > 50.3 µM | 0.401 µM | 24.4 µM | 0.682 µM | 15.3 µM | 1.66 µM | 44.6 µM | 232 nM | 2.08 µM | 8.5 µM | 39.9 µM |
| N[C@H](C(=O)O)[C@@H]1CC(Cl)=NO1 | 25.4 µM | 916 µM |  | 271 µM | 5.76 µM | 700 µM |  | 648 µM | 28.4 µM | > 1000 µM | 31.4 µM | 469 µM | 6.27 µM | 170 µM |  | 718 µM | 5210 nM | > 806 µM | 27.1 µM | 355 µM |
| Cc1cc(N(CC(C)Br)CC(C)Br)ccc1N=Nc1ccccc1C(=O)O (stereo not drawn) |  | 4.39 µM |  | 9.02 µM |  | > 94.1 µM |  | 10.2 µM |  | 13.5 µM |  | 47.2 µM |  | 22.8 µM |  | 4.3 µM |  | > 100 µM |  | 10.2 µM |
| CC1(C)N=C(N)N=C(N)N1c1ccc(CCC(=O)Nc2ccc(S(=O)(=O)F)cc2)c(Cl)c1 | 0.509 µM | > 38.7 µM | 0.642 µM | > 100 µM | 0.522 µM | > 100 µM | 2.4 µM | > 100 µM | 5.37 µM | > 100 µM | 9.86 µM | > 100 µM | 1.86 µM | > 100 µM | > 45.4 µM | > 100 µM | 1200 nM | > 100 µM | 36.1 µM | > 100 µM |
| O=C(Oc1ccc[nH]c1=O)c1cc([N+](=O)[O-])cc([N+](=O)[O-])c1 | > 100 µM | > 100 µM | > 100 µM | > 100 µM | 79 µM | > 100 µM | > 100 µM | > 100 µM | 93.3 µM | > 100 µM | > 100 µM | > 100 µM | > 100 µM | > 100 µM | > 100 µM | > 100 µM | > 100000 nM | > 100 µM | > 100 µM | > 100 µM |
| CC(C)C(O)(C(C)C)C(C)C |  | > 100 µM |  | > 100 µM |  | > 100 µM |  | > 100 µM |  | > 100 µM |  | > 100 µM |  | > 100 µM |  | > 100 µM |  | > 100 µM |  | > 100 µM |
| O=C1C=CC(=O)C2C1C1(Cl)C(Cl)=C(Cl)C2(Cl)C1(Cl)Cl (stereo not drawn) | 6.46 µM | 23.2 µM | 3.73 µM | 13.1 µM | 3.76 µM | > 100 µM | 12.4 µM | 31.1 µM | 4.18 µM | 18.3 µM | 2.03 µM | 5.08 µM | 10.6 µM | 26.2 µM | 3.66 µM | 12 µM | 2540 nM | 14.4 µM | 3.18 µM | 8.99 µM |
| CCN(CC)CCNC(Cc1ccccc1)c1ccc(OCc2ccccc2)cc1 (stereo not drawn) | 5.26 µM | 18.6 µM | 10.2 µM | 22.7 µM | 3.19 µM | 13.7 µM | 7.02 µM | 22.4 µM | 7.85 µM | 21.6 µM | 11.8 µM | 25.8 µM | 8.49 µM | 21.7 µM | 3.83 µM | 18.1 µM | 3430 nM | 13.2 µM | 3.42 µM | 9.74 µM |
| COc1ccc2c(c1)C(=O)/C(=C/c1cccc(OCC(=O)c3ccccc3)c1)O2 | 3.79 µM | 13.8 µM | 1.62 µM | 3.26 µM | 0.81 µM | 2.42 µM | 4.31 µM | 14.5 µM | 1.79 µM | 3.38 µM | 1.83 µM | 3.36 µM | 14.5 µM | 28.5 µM | 3.26 µM | 8.01 µM | 1440 nM | 3.52 µM | 16.7 µM | 30.5 µM |
| CC(=O)Oc1c(C)c(-c2ccccc2)c(C)c(-c2ccccc2)c1C(=S)c1ccccc1 |  | > 100 µM |  | > 100 µM |  | > 100 µM |  | > 100 µM |  | > 100 µM |  | > 100 µM |  | > 100 µM |  | > 100 µM |  | > 100 µM |  | > 100 µM |
| COc1ccc(C(C#N)NC23CC4CC(CC(C4)C2)C3)cc1 (stereo not drawn) |  | > 100 µM |  | > 100 µM |  | > 100 µM |  | > 100 µM |  | > 100 µM |  | > 100 µM |  | > 100 µM |  | > 100 µM |  | > 100 µM |  | > 100 µM |
| NCCCNCCS |  | > 100 µM |  | > 100 µM | > 100 µM and 21.8 µM | > 100 µM and 72.3 µM |  | > 100 µM |  | > 100 µM |  | > 100 µM |  | > 100 µM |  | > 100 µM |  | > 100 µM |  | > 100 µM |
| Nc1n[nH]c2cccc(C#Cc3cccc(NC(=O)c4cccc(C(F)(F)F)c4)c3)c12 | 1.19 µM | 3.47 µM | 4.42 µM | 18.1 µM | 2.69 µM | 15.9 µM | 2.21 µM | 14 µM | 2.44 µM | 9.78 µM | 5.07 µM | 17.3 µM | 3.41 µM | 13.9 µM | 1.65 µM | 3.97 µM | 2210 nM | 13.3 µM | 1.36 µM | 6.95 µM |
| CNC(=O)OCc1nc(SSC(C)(C)C)n(C)c1COC(=O)NC |  | 10.6 µM |  | 2.69 µM |  | 4.54 µM |  | 21 µM |  | 8.71 µM |  | 4.81 µM |  | 31.1 µM |  | 2.84 µM |  | 4.16 µM |  | 19.5 µM |
